Here are results for one substance from patent US20080118494A1, “Compositions For Detection Of Latent Hiv Reactivation And Methods Of Using The Same” (priority 2004, published 2008).

For this assay, the system named is latent HIV-1 infection in LWI6 cells. Briefly: Reactivation of latent HIV-1 in LWI6 reporter cells, EGFP plate based fluorometry (384-well). The assay is classed as cell-based. The following applies: LWI6, 1×10^5 cells/well, 384-well plate. An excerpt: Latently HIV-1 infected reporter cell lines with an increased dynamic range of the EGFP signal. An indicator cell line with HTS feasibility was generated through stable transfection with a reporter plasmid in which the HIV-1 promoter (long terminal repeat; LTR) controls the expression of EGFP. Nucleic acid sequences for HIV-1 LTR (SEQ ID NO:1) can be accessed via GenBank Accession No. X03189. All of the information, including any nucleic acid and amino acid sequences provided for HIV-1 LTR under GenBank Accession X03189 is hereby incorporated in its entirety by this reference. […] In the resulting latently infected T cell clones (LWI4, LWI6, LWI7, LRJ3, LRJ5, LRJ12), maximal EGFP expression was increased by a factor of 10 in comparison to other reporter cell lines incorporating GFP into the HIV-1 genome when analyzed by flow cytometry (FIG. 1).
Assay optimization in […] format plates. […] The need to work with low quantities of material and thus low numbers of reporter cells that are treated has to be balanced with the requirements to obtain a sufficiently high signal to background ratio to avoid false negative hits during the screen. […] Although EGFP fluorescence continued to increase up to the highest density of cells, wells with 1×10^5 cells gave a 40-fold increase of EGFP fluorescence intensity over background after 24 h, and an 80-fold increase after 48 h. […]

Regarding TNF-α, the “increase of EGFP fluorescence intensity over background” value (after 24 h) was determined as 40 fold and the “increase of EGFP fluorescence intensity over background” value (after 48 h) is recorded as 80 fold.
